Assay results from patent US20200261543A1, “COMBINATION THERAPY FOR TREATMENT OF BONE DISORDERS” (University of Copenhagen, priority 2017, published 2020).

Tests used:
[1] = tested on: serum C-terminal cross-linking telopeptide of type I collagen (CTX); assay: Serum CTX (bone resorption) after s.c. GLP-1, Example 5; assay type: in vivo, human; details: GLP-1 1.5 nmol/kg s.c.
Method: Eight healthy young people were enrolled (five male, three female). […] Participants arrived in the morning after an overnight fast. Blood samples were collected before (−15 and 0 min) and after injection (15, 30, 45, 60, 90 and 120 min). After last participant's last visit, bone resorption was determined by measurements of serum C-terminal cross-linking telopeptide of type I collagen (CTX; IDS Immunodiagnostic Systems GmbH, Frankfurt am Main, Germany).

[2] = in vivo; cited from earlier work
[3] = tested on: parathyroid hormone (PTH); assay: Serum PTH after s.c. injection, Example 3; assay type: in vivo, human; details: for time of maximum effect on PTH: GIP 200 μg or GLP-2 800 μg s.c.; for PTH level at maximum effect: 15 min after injection
Method: Eight healthy young men were enrolled. The study included three study days in randomised order (with a minimum of 1 week washout between study days) where human GIP (200 μg), human GLP-2 (800 μg), or placebo was injected subcutaneously. Participants arrived in the morning (fasted overnight) and received the injection around 8.30 a.m. […] After last participant's last visit, bone resorption was determined by measurements of serum C-terminal cross-linking telopeptide of type I collagen (CTX; IDS Immunodiagnostic Systems GmbH, Frankfurt am Main, Germany)
(§1) Eight healthy young men were enrolled, and the study was conducted as outlined in Example 1. After last participant's last visit, bone resorption was determined by measurements of CTX (IDS Immunodiagnostic Systems GmbH, Frankfurt am Main, Germany) and bone formation was determined by measurements of serum N-terminal propeptide of type 1 collagen (P1NP; IDS Immunodiagnostic Systems GmbH, Frankfurt am Main, Germany). In addition, serum concentration of parathyroid hormone (PTH; IDS Immunodiagnostic Systems GmbH, Frankfurt am Main, Germany) was measured.

[4] = tested on: serum C-terminal cross-linking telopeptide of type I collagen (CTX); assay: Nocturnal CTX (bone resorption) in postmenopausal women, Example 6; assay type: in vivo, human
Method: Ten healthy postmenopausal women are enrolled and the study includes four study days in randomised order (with a minimum of 1 week washout between study days) where human GIP (hGIP 100 μg), human GLP-2 ([…]), hGIP+hGLP-2 (100 μg+400 μg), or placebo, are injected subcutaneously. The participants arrive in the evening around 9 p.m. (fasted from ˜7 p.m.) and receive the injections at 10 p.m. Blood samples are collected before (−10 and −5 min) and after injection (7, 15, 30, 45, 60, 90, 120, 180 and 240 min). Bone resorption was determined by measurements of serum C-terminal cross-linking telopeptide of type I collagen (CTX; IDS Immunodiagnostic Systems GmbH, Frankfurt am Main, Germany). The doses of GIP and GLP-2 were selected as discussed in example 2.

[5] = tested on: serum N-terminal propeptide of type 1 collagen (P1NP); assay: Serum P1NP (bone formation) after s.c. injection alone or in combination, Example 4; assay type: in vivo, human; details: for time of maximum effect on bone formation (P1NP): GIP 100 μg or GLP-2 400 μg s.c.
Method: (§2) Ten healthy young men are enrolled and the study includes four study days in randomised order (with a minimum of 1 week washout between study days) where human GIP (100 μg), human GLP-2 (400 μg), GIP+GLP-2 (100 μg+400 μg), or placebo are injected subcutaneously. The participants arrive in the morning (fasted overnight) and receive the injection around 8.30 a.m. Blood samples are collected before (−25 and −10) and every 30 minutes after injection (30, 60, 90, 120, 180 and 240 min) injection. After last participant's last visit, samples are analysed for concentrations of bone resorption markers (CTX).
as §1, with “Ten” for “Eight”, “are enrolled” for “were enrolled,”, “2.” for “1.”, “measured. The doses of GIP and GLP-2 were selected as discussed in example 2.” for “measured.”

[6] = tested on: serum N-terminal propeptide of type 1 collagen (P1NP); assay: Serum P1NP (bone formation) after s.c. injection, Example 3; assay type: in vivo, human; details: for time of maximum effect on bone formation (P1NP): GIP 200 μg or GLP-2 800 μg s.c.
Method: (§3) Eight healthy young men were enrolled. The study included three study days in randomised order (with a minimum of 1 week washout between study days) where human GIP (200 μg), human GLP-2 (800 μg), or placebo was injected subcutaneously. Participants arrived in the morning (fasted overnight) and received the injection around 8.30 a.m. Blood samples were collected before (−25 and −10 min) and every 30 minutes after injection (30, 60, 90, 120, 180 and 240 min). After last participant's last visit, bone resorption was determined by measurements of serum C-terminal cross-linking telopeptide of type I collagen (CTX; IDS Immunodiagnostic Systems GmbH, Frankfurt am Main, Germany)
as §1

[7] = tested on: serum C-terminal cross-linking telopeptide of type I collagen (CTX); assay: Serum CTX (bone resorption) after s.c. injection in healthy young men, Example 1/3 study; assay type: in vivo, human; details: for reduction in bone resorption (CTX): 200 μg GIP and 800 μg GLP-2, Example 1 as summarised in Example 2; for time of maximum effect on bone resorption (CTX): GIP 200 μg or GLP-2 800 μg s.c.
Method: as §3, §1

[8] = tested on: parathyroid hormone (PTH); assay: Serum PTH after s.c. injection alone or in combination, Example 4; assay type: in vivo, human; details: for time of maximum effect on PTH: GIP 100 μg, GLP-2 400 μg or both s.c.
Method: as §2, with “Blood samples are collected before (−25 and −10) and every 30 minutes after injection (30, 60, 90, 120, 180 and 240 min) injection.” left out
as §1, with “Ten” for “Eight”, “are enrolled” for “were enrolled,”, “2.” for “1.”, “measured. The doses of GIP and GLP-2 were selected as discussed in example 2.” for “measured.”

CTX = CTX (bone resorption) after s.c. injection alone or in combination, Example 2/4 study; assay type: in vivo, human; details: Example 4; for time of maximum effect on bone resorption (CTX): GIP 100 μg, GLP-2 400 μg or both s.c.
Method: as §2
as §1, with “Ten” for “Eight”, “are enrolled” for “were enrolled,”, “2.” for “1.”, “measured. The doses of GIP and GLP-2 were selected as discussed in example 2.” for “measured.”

Substance: GLP-1: human glucagon-like peptide-1; which form (SEQ ID NO: 7, 8 or 9) was injected is not stated
- time of maximum effect on bone resorption (CTX) [1]: 120 min
- bone resorption (CTX) at maximum effect ([1]; 120 min after injection, healthy young people): 74.4±3.7 % of base line
- fasting plasma levels [2]: 0 to 15 pmol/L

Substance: HADGSFSDEMNTILDNLAARDFINWLIQTKITD [GLP-2]
- time of maximum effect on PTH [3]: 15 min
- PTH level at maximum effect ([3]; GLP-2 800 μg s.c.): 71.9±13.9 % of basal levels
- nocturnal bone resorption (CTX) compared to placebo ([4]; GLP-2 400 μg s.c. at 10 p.m.): reduced bone resorption during the entire study period
- time of maximum effect on bone formation (P1NP) [5]: 60 min
- bone formation (P1NP) at maximum effect (reduction) ([5]; GLP-2 400 μg s.c., 60 min after injection): 88.2±9.4 % of base line
- time of maximum effect on bone formation (P1NP) [6]: 45 min
- bone formation (P1NP) at maximum effect (reduction) ([6]; GLP-2 800 μg s.c., 45 min after injection): 88.1±8.5 % of base line
- reduction in bone resorption (CTX) [7]: ~50%
- time of maximum effect on bone resorption (CTX) ([7]; Example 1): 180 min
- time of maximum effect on bone resorption (CTX) ([7]; Example 3): 180 min
- bone resorption (CTX) at maximum effect ([7]; GLP-2 800 μg s.c., 180 min after administration, Example 3 (completed study)): 60.5±14.1 % of base line
- bone resorption (CTX) at maximum effect ([7]; GLP-2 800 μg s.c., 180 min after administration, healthy young men, Example 1): 63.4±3.4 % of base line
- time of maximum effect on PTH [8]: 45 min
- PTH level at maximum effect ([8]; GLP-2 400 μg s.c., 45 min after injection): 65.7±16.8 % of basal levels
- time of maximum effect on bone resorption (CTX) (CTX): 210 min
- bone resorption (CTX) at maximum effect (CTX; GLP-2 400 μg s.c. alone, 210 min after injection): 58.2±16.0 % of basal

Substance: YAEGTFISDYSIAMDKIHQQDFVNWLLAQKGKKNDWKHNITQ [GIP]
- time of maximum effect on PTH [3]: 15 min
- PTH level at maximum effect ([3]; GIP 200 μg s.c.): 71.2±11.4 % of basal levels
- nocturnal bone resorption (CTX) compared to placebo ([4]; GIP 100 μg s.c. at 10 p.m.): reduced bone resorption was seen from 30 min to 120 min
- time of maximum effect on bone formation (P1NP) [5]: 30 min
- bone formation (P1NP) at maximum effect (increase) ([5]; GIP 100 μg s.c., 30 min after injection): 111.1±9.0 % of base line
- time of maximum effect on bone formation (P1NP) [6]: 30 min
- bone formation (P1NP) at maximum effect (increase) ([6]; GIP 200 μg s.c., 30 min after injection): 115.1±6.2 % of base line
- reduction in bone resorption (CTX) [7]: ~50%
- time of maximum effect on bone resorption (CTX) ([7]; Example 1): 90 min
- time of maximum effect on bone resorption (CTX) ([7]; Example 3): 90 min
- bone resorption (CTX) at maximum effect ([7]; GIP 200 μg s.c., 90 min after injection, Example 3 (completed study)): 55.3±17.9 % of base line
- bone resorption (CTX) at maximum effect ([7]; GIP 200 μg s.c., 90 min after injection, healthy young men, Example 1): 56.2±11.2 % of base line
- PTH level at maximum effect ([8]; GIP 100 μg s.c., 15 min after injection): 73.0±19.2 % of basal levels
- time of maximum effect on PTH [8]: 15 min
- bone resorption (CTX) at maximum effect (CTX; GIP 100 μg s.c. alone, 90 min after administration): 57.6±17.9 % of basal
- time of maximum effect on bone resorption (CTX) (CTX): 90 min
